Results taken from patent US4218453A, “N-Substituted hexahydro-6-canthinones for treating cardio-circulatory, cerebrovascular, and respiratory dysfunction” (priority 1976, dated 1980).

How the values were obtained:
Charles River stock mice = experiment: Hypobaric anoxia test on mice (survival time); type: in vivo; settings: for activity relative to vincamine: comparison on the basis of fractions of LD50
Procedure: Charles River stock mice of the same sex, weighting about 20±2 g are shared into three lots of 10 animals each. The lots 1 and 2 comprise treated animals, i.e. those having received either a substance to be tested or vincamine, together with solvent, at 1 ml/100 g of body weight. The third lot comprises control animals i.e. those having only received solvent at 1 ml/100 g of body weight.
The compounds examined were administered by intragastric route 15 minutes before the experiment. The doses as applied correspond to 1/5, 1/10, 1/20 of the LD50 for the compounds of the invention and 1/5 of LD50 for vincamine.
The animals were placed in an atmosphere impoverished in oxygen by creating a partial vacuum (190 mm Hg, corresponding to 5.25% oxygen), in about 30 seconds.
The survival time of the mice was measured with a chronometer. Said time is increased by the agents capable of enhancing oxygenation of tissues and more particularly brain oxygenation.
The percentages of survival time increase with respect to the values obtained for the control animals are calculated.

[1] = Acute toxicity, intragastric route, mice (LD50, Lichtfield and Wilcoxon); settings: mouse, in vivo, po
Procedure: The compounds of the invention and vincamine also were administered by intragastric route to Charles River stock mice. The lethal doses for 50% (LD50) were determined graphically according to the method of Lichtfield and Wilcoxon (J. Pharmacol. Exp. Therap. […], 96, 99).

CN1CCc2c3n(c4ccccc24)C(=O)CCC31 (stereo not drawn) [OC-330]
Variation % (survival time increase vs control) (Charles River stock mice; Table II, 1st experiment, 60 mg/kg or LD50/5, intragastric 15 min before): 212% | Survival time (Charles River stock mice; Table II, 1st experiment, 60 mg/kg or LD50/5, intragastric 15 min before, control 39 (± 2)): 122 (± 4) sec. | Variation % (survival time increase vs control) (Charles River stock mice; Table II, 2nd experiment, 30 mg/kg or LD50/5 (so in the source)): 71% | Survival time (Charles River stock mice; Table II, 2nd experiment, 30 mg/kg or LD50/5 (so in the source), control 39 (± 3)): 67 (± 3) sec. | effect compared with vincamine at 1/5 LD50 (Charles River stock mice; at doses corresponding to 1/10 LD50 for mice (p.o.)): exerts an effect whose intensity is comparable to vincamine at 1/5 LD50 | activity relative to vincamine (Charles River stock mice): about two times more active than vincamine | LD50 ([1]; mice): 310 mg/kg

CCN1CCc2c3n(c4ccccc24)C(=O)CCC31 (stereo not drawn) [OC-331, 3-ethyl-1,2,3,3a,4,5-hexahydro-6-canthinone]
Variation % (survival time increase vs control) (Charles River stock mice; Table III, 1st experiment, 80 mg/kg or LD50/5): 214% | Survival time (Charles River stock mice; Table III, 1st experiment, 80 mg/kg or LD50/5, control 39 (± 2)): 122 (± 1) sec. | Variation % (survival time increase vs control) (Charles River stock mice; Table III, 2nd experiment, 40 mg/kg or LD50/10): 105% | Survival time (Charles River stock mice; Table III, 2nd experiment, 40 mg/kg or LD50/10, control 39 (± 1)): 80 (± 3) sec. | Variation % (survival time increase vs control) (Charles River stock mice; Table III, 3rd experiment, 20 mg/kg or LD50/20): 75% | Survival time (Charles River stock mice; Table III, 3rd experiment, 20 mg/kg or LD50/20, control 39 (± 1)): 57 (± 4) sec. | effect compared with vincamine at 1/5 LD50 (Charles River stock mice; at doses corresponding to 1/20 LD50 for mice (p.o.)): exerts an effect comparable to vincamine at 1/5 LD50 | activity relative to vincamine (Charles River stock mice): about four times more active than vincamine | LD50 ([1]; mice): 411 mg/kg

CN1CCc2c3n(c4c(O)cccc24)C(=O)CCC31 (stereo not drawn) [OC-332]
Variation % (survival time increase vs control) (Charles River stock mice; Table IV, 100 mg/kg or LD50/5): 117% | Survival time (Charles River stock mice; Table IV, 100 mg/kg or LD50/5, control 35 (± 3)): 76 (± 1) sec. | effect relative to vincamine (Charles River stock mice; at equally toxic dose): about 1.5 times higher | LD50 [1]: 527 mg/kg

CC[C@]12CCCN3CCc4c(n(c5ccccc45)[C@@](O)(C(=O)OC)C1)[C@@H]32 [Vincamine, vincamine, reference compound]
Variation % (survival time increase vs control) (Charles River stock mice; Table II, 1st experiment, vincamine 200 mg/kg, LD50/5): 67% | Survival time (Charles River stock mice; Table II, 1st experiment, vincamine 200 mg/kg, LD50/5, control 39 (± 2)): 65 (± 1) sec. | Variation % (survival time increase vs control) (Charles River stock mice; Table II, 2nd experiment, vincamine 200 mg/kg or LD50/5): 67% | Survival time (Charles River stock mice; Table II, 2nd experiment, vincamine 200 mg/kg or LD50/5, control 39 (± 3)): 65 (± 2) sec. | Variation % (survival time increase vs control) (Charles River stock mice; Table III, 1st experiment, vincamine 200 mg/kg or LD50/5): 67% | Survival time (Charles River stock mice; Table III, 1st experiment, vincamine 200 mg/kg or LD50/5, control 39 (± 2)): 65 (± 3) sec. | Variation % (survival time increase vs control) (Charles River stock mice; Table III, 2nd experiment, vincamine 200 mg/kg or LD50/5): 67% | Survival time (Charles River stock mice; Table III, 2nd experiment, vincamine 200 mg/kg or LD50/5, control 39 (± 1)): 65 (+ 1) sec. | Variation % (survival time increase vs control) (Charles River stock mice; Table III, 3rd experiment, vincamine 200 mg/kg or LD50/5): 59% | Survival time (Charles River stock mice; Table III, 3rd experiment, vincamine 200 mg/kg or LD50/5, control 39 (± 1)): 52 (± 1) sec. | Variation % (survival time increase vs control) (Charles River stock mice; Table IV, vincamine 200 mg/kg or LD50/5): 77% | Survival time (Charles River stock mice; Table IV, vincamine 200 mg/kg or LD50/5, control 35 (± 3)): 62 (± 4) sec. | LD50 ([1]; mice): 970 mg/kg
